Measurements taken from US10385057B2, “Pyrazole compounds and methods of making and using same” (Lundbeck La Jolla Research Center, Inc., priority 2015, dated 2019).

Key:
[1] = biological target: T1, FAAH (Mus musculus, UniProt O08914); assay: In vitro competitive activity-based protein profiling, mouse FAAH; type: biochemical; conditions: for inhibition at 1 µM: read-out: FAAH % inh. 1 μM (mouse)
T1 construct: mouse brain membrane fraction or cell lysates for mouse assays; from tissue
T1 sequence (O08914 1-579): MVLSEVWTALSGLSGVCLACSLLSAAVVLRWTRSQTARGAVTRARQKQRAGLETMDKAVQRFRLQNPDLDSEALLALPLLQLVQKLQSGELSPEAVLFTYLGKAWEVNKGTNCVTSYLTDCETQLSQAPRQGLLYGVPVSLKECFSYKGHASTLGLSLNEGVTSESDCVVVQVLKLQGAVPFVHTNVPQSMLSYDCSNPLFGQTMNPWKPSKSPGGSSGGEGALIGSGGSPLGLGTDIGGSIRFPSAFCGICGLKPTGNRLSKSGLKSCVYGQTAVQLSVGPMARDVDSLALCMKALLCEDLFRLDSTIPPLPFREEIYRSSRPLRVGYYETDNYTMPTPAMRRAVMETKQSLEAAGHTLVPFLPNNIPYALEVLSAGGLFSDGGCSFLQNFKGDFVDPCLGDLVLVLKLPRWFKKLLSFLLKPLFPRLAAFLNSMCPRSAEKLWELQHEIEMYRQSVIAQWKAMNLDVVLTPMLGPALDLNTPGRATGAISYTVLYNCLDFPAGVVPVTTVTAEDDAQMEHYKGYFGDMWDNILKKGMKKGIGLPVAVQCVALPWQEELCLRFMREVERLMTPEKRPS
In short: (§1)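 Mouse brain membranes or cell lysates (mouse) and human prefrontal cortex or cell membrane fractions (human), 1.0 mg/mL protein, preincubated with inhibitor 30 min at 37 °C, then FP-Rh or HT-01 probe 30 min at 37 °C. SDS-PAGE; MAGL and FAAH activity from in-gel fluorescence band intensity.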

[2] = biological target: T2, MAGL (Mus musculus, UniProt O35678); assay: In vitro competitive activity-based protein profiling, mouse MAGL; type: biochemical; conditions: for inhibition at 1 µM: read-out: MAGL % inh. 1 μM (mouse)
T2 construct: mouse brain membrane fraction or cell lysates for mouse assays; from tissue
T2 sequence (O35678 1-303): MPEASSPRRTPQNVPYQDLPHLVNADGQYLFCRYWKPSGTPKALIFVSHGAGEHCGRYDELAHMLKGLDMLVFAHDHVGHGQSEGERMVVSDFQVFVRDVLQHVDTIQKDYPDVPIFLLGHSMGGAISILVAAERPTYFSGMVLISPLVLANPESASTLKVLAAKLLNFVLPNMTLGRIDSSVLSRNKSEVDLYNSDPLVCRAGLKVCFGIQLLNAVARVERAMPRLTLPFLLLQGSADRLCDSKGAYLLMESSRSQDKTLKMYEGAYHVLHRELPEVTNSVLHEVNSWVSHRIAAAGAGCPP
In short: as §1

| IC50 [1] | inhibition at 1 µM [1] | IC50 [2] | inhibition at 1 µM [2] | SMILES |
| --- | --- | --- | --- | --- |
| 100 to 1000 nM | ≥ 75% | 100 to 1000 nM | ≥ 75% | CC(=O)N(Cc1ccccc1Cl)[C@@H]1C[C@@H]2CN(C(=O)n3cc(Cl)cn3)C[C@@H]2C1 [Example 62, N-(cis-2-(4-chloro-1H-pyrazole-1-carbonyl)octahydrocyclopenta[c]pyrrol-5-yl)-N-(2-chlorobenzyl)acetamide] |
|  | 25 to 50% |  | ≥ 75% | CC(=O)N(Cc1ccccc1Cl)[C@H]1C[C@@H]2CN(C(=O)n3cc(Cl)cn3)C[C@@H]2C1 [Example 63, N-(trans-2-(4-chloro-1H-pyrazole-1-carbonyl)octahydrocyclopenta[c]pyrrol-5-yl)-N-(2-chlorobenzyl)acetamide] |
| ≤ 100 nM | ≥ 75% | ≤ 100 nM | ≥ 75% | O=C(N1C[C@H]2C[C@H](NCc3ccccc3Cl)C[C@H]2C1)n1cc(Cl)cn1 [Example 64, (4-chloro-1H-pyrazol-1-yl)(trans-5-((2-chlorobenzyl)amino)hexahydrocyclopenta[c]pyrrol-2(1H)-yl)methanone] |
| ≤ 100 nM | ≥ 75% | ≤ 100 nM | ≥ 75% | CN(Cc1cccc(Cl)c1)[C@@H]1C[C@@H]2CN(C(=O)n3cc(Cl)cn3)C[C@@H]2C1 [Example 65, (4-chloro-1H-pyrazol-1-yl)(cis-5-((3-chlorobenzyl)(methyl)amino)hexahydrocyclopenta[c]pyrrol-2(1H)-yl)methanone] |
| ≤ 100 nM | ≥ 75% | 100 to 1000 nM | ≥ 75% | O=C(N1C[C@H]2C[C@@H](NCc3cccc(Cl)c3)C[C@H]2C1)n1cc(Cl)cn1 [Example 66, (4-chloro-1H-pyrazol-1-yl)(cis-5-((3-chlorobenzyl)amino)hexahydrocyclopenta[c]pyrrol-2(1H)-yl)methanone] |
| ≤ 100 nM | ≥ 75% | 100 to 1000 nM | ≥ 75% | CN(Cc1ccc(Cl)cc1)[C@@H]1C[C@@H]2CN(C(=O)n3cc(Cl)cn3)C[C@@H]2C1 [Example 67, (4-chloro-1H-pyrazol-1-yl)(cis-5-((4-chlorobenzyl)(methyl)amino)hexahydrocyclopenta[c]pyrrol-2(1H)-yl)methanone] |
|  | ≥ 75% |  | ≥ 75% | CN(Cc1ccc(Cl)cc1)[C@H]1C[C@@H]2CN(C(=O)n3cc(Cl)cn3)C[C@@H]2C1 [Example 68, (4-chloro-1H-pyrazol-1-yl)(trans-5-((4-chlorobenzyl)(methyl)amino)hexahydrocyclopenta[c]pyrrol-2(1H)-yl)methanone] |
| ≤ 100 nM | ≥ 75% | ≤ 100 nM | ≥ 75% | CC(=O)N(Cc1ccc(Cl)cc1)[C@@H]1C[C@@H]2CN(C(=O)n3cc(Cl)cn3)C[C@@H]2C1 [Example 69, N-(cis-2-(4-chloro-1H-pyrazole-1-carbonyl)octahydrocyclopenta[c]pyrrol-5-yl)-N-(4-chlorobenzyl)acetamide] |
|  | 50 to 75% |  | ≥ 75% | CC(=O)N(Cc1ccc(Cl)cc1)[C@H]1C[C@@H]2CN(C(=O)n3cc(Cl)cn3)C[C@@H]2C1 [Example 70, N-(trans-2-(4-chloro-1H-pyrazole-1-carbonyl)octahydrocyclopenta[c]pyrrol-5-yl)-N-(4-chlorobenzyl)acetamide] |
| 100 to 1000 nM | ≥ 75% | 100 to 1000 nM | ≥ 75% | O=C(N1C[C@H]2C[C@@H](NCc3ccc(Cl)cc3)C[C@H]2C1)n1cc(Cl)cn1 [Example 71, (4-chloro-1H-pyrazol-1-yl)(cis-5-((4-chlorobenzyl)amino)hexahydrocyclopenta[c]pyrrol-2(1H)-yl)methanone] |
| ≤ 100 nM | ≥ 75% | ≤ 100 nM | ≥ 75% | CN(Cc1cccc(Cl)c1)[C@H]1C[C@@H]2CN(C(=O)n3cc(Cl)cn3)C[C@@H]2C1 [Example 72, (4-chloro-1H-pyrazol-1-yl)(trans-5-((3-chlorobenzyl)(methyl)amino)hexahydrocyclopenta[c]pyrrol-2(1H)-yl)methanone] |
| ≤ 100 nM | ≥ 75% | 100 to 1000 nM | ≥ 75% | O=C(N1C[C@H]2C[C@H](NCc3ccc(Cl)cc3)C[C@H]2C1)n1cc(Cl)cn1 [Example 73, (4-chloro-1H-pyrazol-1-yl)(trans-5-((4-chlorobenzyl)amino)hexahydrocyclopenta[c]pyrrol-2(1H)-yl)methanone] |
|  | ≥ 75% |  | ≥ 75% | CC(=O)N(Cc1cccc(Cl)c1)[C@H]1C[C@@H]2CN(C(=O)n3cc(Cl)cn3)C[C@@H]2C1 [Example 74, N-(trans-2-(4-chloro-1H-pyrazole-1-carbonyl)octahydrocyclopenta[c]pyrrol-5-yl)-N-(3-chlorobenzyl)acetamide] |
| ≤ 100 nM | ≥ 75% | ≤ 100 nM | ≥ 75% | O=C(N1C[C@H]2C[C@H](NCc3cccc(Cl)c3)C[C@H]2C1)n1cc(Cl)cn1 [Example 75, (4-chloro-1H-pyrazol-1-yl)(trans-5-((3-chlorobenzyl)amino)hexahydrocyclopenta[c]pyrrol-2(1H)-yl)methanone] |
| ≤ 100 nM | ≥ 75% | ≤ 100 nM | ≥ 75% | CN(Cc1ccc(C(F)(F)F)cc1)[C@@H]1C[C@@H]2CN(C(=O)n3cc(Cl)cn3)C[C@@H]2C1 [Example 76, (4-chloro-1H-pyrazol-1-yl)(cis-5-(methyl(4-(trifluoromethyl)benzyl)amino)hexahydrocyclopenta[c]pyrrol-2(1H)-yl)methanone] |
| 100 to 1000 nM | ≥ 75% | 1000 to 10000 nM | 50 to 75% | CN(Cc1ccc(N2CCOCC2)cc1)[C@@H]1C[C@@H]2CN(C(=O)n3cc(Cl)cn3)C[C@@H]2C1 [Example 77, (4-chloro-1H-pyrazol-1-yl)(cis-5-(methyl(4-morpholinobenzyl)amino)hexahydrocyclopenta[c]pyrrol-2(1H)-yl)methanone] |
| ≤ 100 nM | ≥ 75% | ≤ 100 nM | ≥ 75% | CN(Cc1ccc(C(F)(F)F)cc1)[C@H]1C[C@@H]2CN(C(=O)n3cc(Cl)cn3)C[C@@H]2C1 [Example 78, (4-chloro-1H-pyrazol-1-yl)(trans-5-(methyl(4-(trifluoromethyl)benzyl)amino)hexahydrocyclopenta[c]pyrrol-2(1H)-yl)methanone] |
|  | ≥ 75% |  | 50 to 75% | CN(Cc1ccc(N2CCOCC2)cc1)[C@H]1C[C@@H]2CN(C(=O)n3cc(Cl)cn3)C[C@@H]2C1 [Example 79, (4-chloro-1H-pyrazol-1-yl)(trans-5-(methyl(4-morpholinobenzyl)amino)hexahydrocyclopenta[c]pyrrol-2(1H)-yl)methanone] |
| ≤ 100 nM | ≥ 75% | ≤ 100 nM | ≥ 75% | CN(Cc1cccc(C(F)(F)F)c1)[C@@H]1C[C@@H]2CN(C(=O)n3cc(Cl)cn3)C[C@@H]2C1 [Example 80, (4-chloro-1H-pyrazol-1-yl)(cis-5-(methyl(3-(trifluoromethyl)benzyl)amino)hexahydrocyclopenta[c]pyrrol-2(1H)-yl)methanone] |
| ≤ 100 nM | ≥ 75% | 1000 to 10000 nM | 25 to 50% | CN(Cc1cccc(N2CCOCC2)c1)[C@@H]1C[C@@H]2CN(C(=O)n3cc(Cl)cn3)C[C@@H]2C1 [Example 81, (4-chloro-1H-pyrazol-1-yl)(cis-5-(methyl(3-morpholinobenzyl)amino)hexahydrocyclopenta[c]pyrrol-2(1H)-yl)methanone] |
| 100 to 1000 nM | ≥ 75% | 100 to 1000 nM | ≥ 75% | CN(Cc1cccc(N2CCOCC2)c1)[C@H]1C[C@@H]2CN(C(=O)n3cc(Cl)cn3)C[C@@H]2C1 [Example 82, (4-chloro-1H-pyrazol-1-yl)(trans-5-(methyl(3-morpholinobenzyl)amino)hexahydrocyclopenta[c]pyrrol-2(1H)-yl)methanone] |
